These compounds were tested against T1, Glycogen phosphorylase, muscle form (Oryctolagus cuniculus, UniProt P00489) (assay: Competitive inhibition of rabbit muscle glycogen phosphorylase b).
T1 sequence (P00489 whole entry): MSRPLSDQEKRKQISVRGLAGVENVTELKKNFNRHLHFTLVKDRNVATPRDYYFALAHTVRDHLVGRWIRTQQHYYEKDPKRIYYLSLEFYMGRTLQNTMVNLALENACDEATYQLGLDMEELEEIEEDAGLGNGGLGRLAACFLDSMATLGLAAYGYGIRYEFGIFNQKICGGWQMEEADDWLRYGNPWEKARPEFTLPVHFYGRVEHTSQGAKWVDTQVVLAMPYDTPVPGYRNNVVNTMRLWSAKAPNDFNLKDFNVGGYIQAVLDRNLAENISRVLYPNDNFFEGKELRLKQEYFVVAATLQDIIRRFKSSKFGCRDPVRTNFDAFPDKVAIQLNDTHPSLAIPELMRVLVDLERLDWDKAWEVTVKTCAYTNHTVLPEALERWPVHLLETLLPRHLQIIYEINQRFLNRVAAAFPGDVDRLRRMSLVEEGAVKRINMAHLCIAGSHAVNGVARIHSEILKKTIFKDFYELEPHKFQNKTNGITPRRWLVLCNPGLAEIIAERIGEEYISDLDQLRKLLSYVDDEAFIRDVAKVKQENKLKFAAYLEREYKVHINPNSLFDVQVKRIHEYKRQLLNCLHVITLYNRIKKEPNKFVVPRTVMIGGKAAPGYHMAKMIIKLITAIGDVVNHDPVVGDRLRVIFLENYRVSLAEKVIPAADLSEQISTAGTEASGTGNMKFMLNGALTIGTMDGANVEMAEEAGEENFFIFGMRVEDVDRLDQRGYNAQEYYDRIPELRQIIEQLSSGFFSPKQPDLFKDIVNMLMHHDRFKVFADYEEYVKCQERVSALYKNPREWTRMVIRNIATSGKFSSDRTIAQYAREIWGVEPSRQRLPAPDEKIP
Design: species or system Muscle tissue

| SMILES | Ki [µM] |
| --- | --- |
| OCc1n[nH]c([C@@H]2O[C@H](CO)[C@@H](O)[C@H](O)[C@H]2O)n1 | 105 |
| OC[C@H]1O[C@@H](c2nnc(-c3ccccc3)[nH]2)[C@H](O)[C@@H](O)[C@@H]1O | 7 |
| OC[C@H]1O[C@@H](c2nc(-c3ccc4ccccc4c3)n[nH]2)[C@H](O)[C@@H](O)[C@@H]1O | 0.41 |
